Converted amounts (≈) assume the structure as drawn.

The source of these data is patent US20240270762A1, “PENICILLIN-BINDING PROTEIN INHIBITORS” (priority 2021, published 2024).

One assay deals with N. gonorrhoeae WHO L. Description: Liquid broth MIC in Fastidious broth. The note with it: Neisseria gonorrhoeae, read-out: Minimum Inhibitory Concentration, WHO L.
In a further assay the test system is N. gonorrhoeae WHO Q. Kind of assay: Liquid broth MIC in Fastidious broth. The note with it: Neisseria gonorrhoeae, read-out: Minimum Inhibitory Concentration, WHO Q.
Another assay relates to N. gonorrhoeae CDC-0197. Description: Liquid broth MIC in Fastidious broth. The note with it: Neisseria gonorrhoeae, CDC0197, read-out: Minimum Inhibitory Concentration, CDC-0197.
Another assay deals with N. gonorrhoeae WHO M. Kind of assay: Liquid broth MIC in Fastidious broth. The following applies: Neisseria gonorrhoeae, read-out: Minimum Inhibitory Concentration, WHO M.
Another assay deals with N. gonorrhoeae WHO Z. Kind of assay: Liquid broth MIC in Fastidious broth. The note with it: Neisseria gonorrhoeae, read-out: Minimum Inhibitory Concentration, WHO Z.
Assay [1] deals with T1, PBP1a from Acinetobacter baumannii (ATCC 19606) (Acinetobacter baumannii, UniProt A0ABX6CK30).
T1 sequence (A0ABX6CK30 1-851): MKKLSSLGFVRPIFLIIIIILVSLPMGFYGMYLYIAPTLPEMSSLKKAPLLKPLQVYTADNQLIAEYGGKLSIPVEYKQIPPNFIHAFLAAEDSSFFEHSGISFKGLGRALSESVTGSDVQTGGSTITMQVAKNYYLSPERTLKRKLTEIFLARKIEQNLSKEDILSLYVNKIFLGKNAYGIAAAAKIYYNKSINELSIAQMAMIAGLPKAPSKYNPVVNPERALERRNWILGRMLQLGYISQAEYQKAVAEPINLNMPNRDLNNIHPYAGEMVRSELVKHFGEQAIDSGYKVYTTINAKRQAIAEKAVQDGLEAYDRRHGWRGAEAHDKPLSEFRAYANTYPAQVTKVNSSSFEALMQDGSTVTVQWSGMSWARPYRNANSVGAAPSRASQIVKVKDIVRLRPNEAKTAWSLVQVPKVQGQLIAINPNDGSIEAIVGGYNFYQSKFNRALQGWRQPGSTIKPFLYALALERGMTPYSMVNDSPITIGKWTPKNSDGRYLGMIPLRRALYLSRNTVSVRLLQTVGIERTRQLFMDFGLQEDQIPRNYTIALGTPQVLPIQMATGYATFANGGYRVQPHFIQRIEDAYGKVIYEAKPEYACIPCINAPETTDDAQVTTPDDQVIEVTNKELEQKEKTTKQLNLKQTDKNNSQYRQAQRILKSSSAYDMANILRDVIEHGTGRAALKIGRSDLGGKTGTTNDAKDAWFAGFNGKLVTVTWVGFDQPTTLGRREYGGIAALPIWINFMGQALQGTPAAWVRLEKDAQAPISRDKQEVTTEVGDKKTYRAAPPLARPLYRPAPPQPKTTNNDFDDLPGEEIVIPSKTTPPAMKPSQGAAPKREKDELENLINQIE
Kind of assay: Bocillin-FL fluorescence polarization competition binding, A. baumannii PBP1a. The note with it: fluorescence polarization competition binding assay using Bocillin-FL; read-out: A. baumannii PBP1a Potency. The gist of the method:
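Purified PBPs pre-incubated with inhibitor (E. coli PBP3 1.5 μM, 30 min; P. aeruginosa PBP3 0.75 μM, A. baumannii PBP1a 1 μM and PBP3 0.2 μM, 15 min), then Bocillin-FL 0.1 μM (0.05 μM for PBP1a) added; FP read up to 60 min. EC50 = concentration halving bound Bocillin-FL.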
(In general: In fluorescence polarisation assays a small probe gives low polarisation when free and higher when bound to something large.)

For the next assay, the system named is N. gonorrhoeae WHO K. Description: Liquid broth MIC in Fastidious broth. The following applies: Neisseria gonorrhoeae, read-out: Minimum Inhibitory Concentration, WHO K.
For another assay, the system named is N. gonorrhoeae WHO X. Kind of assay: Liquid broth MIC in Fastidious broth. The note with it: Neisseria gonorrhoeae, read-out: Minimum Inhibitory Concentration, WHO X.
The subject of the next assay is N. gonorrhoeae MS11. Description: Liquid broth MIC in Fastidious broth. The note with it: Neisseria gonorrhoeae, MS11, read-out: Minimum Inhibitory Concentration, MS11.

As for `O=C(NCCCN1CCN(C(=O)N[C@@H](C(=O)N[C@H]2Cc3ccc(F)c(C(=O)O)c3OB2O)c2cc(F)c(O)c(O)c2Cl)C(=O)C1=O)c1ccnc(F)c1F` [Example 300, (R)-3-((R)-2-(2-chloro-5-fluoro-3,4-dihydroxyphenyl)-2-(4-(3-(2,3-difluoroisonicotinamido)propyl)-2,3-dioxopiperazine-1-carboxamido)acetamido)-7-fluoro-2-hydroxy-3,4-dihydro-2H-benzo[e][1,2]oxaborinine-8-carboxylic acid], the MIC in the assay with N. gonorrhoeae WHO L is above 64 µg/mL; with N. gonorrhoeae WHO Q, above 64 µg/mL; in the assay with N. gonorrhoeae CDC-0197, above 64 µg/mL; with N. gonorrhoeae WHO M it was 16 to 32 µg/mL (≈ 20.5 to 41 µM); in the assay on N. gonorrhoeae WHO Z, above 64 µg/mL; with N. gonorrhoeae WHO K, above 64 µg/mL. Further, the MIC was above 64 µg/mL in the assay with N. gonorrhoeae WHO X and 16 to 32 µg/mL (≈ 20.5 to 41 µM) in the assay with N. gonorrhoeae MS11. In addition, the IC50 in assay [1] is above 250 µM.
For the compound `O=C(NCCCN1CCN(C(=O)NC(C(=O)N[C@H]2Cc3ccc(F)c(C(=O)O)c3OB2O)c2cc(F)c(O)c(O)c2Cl)C(=O)C1=O)c1ccc(O)c(F)c1F` (stereo partly drawn) [Example 306, (3R)-3-(2-(2-chloro-5-fluoro-3,4-dihydroxyphenyl)-2-(4-(3-(2,3-difluoro-4-hydroxybenzamido)propyl)-2,3-dioxopiperazine-1-carboxamido)acetamido)-7-fluoro-2-hydroxy-3,4-dihydro-2H-benzo[e][1,2]oxaborinine-8-carboxylic acid], the MIC in the assay with N. gonorrhoeae WHO L is above 64 µg/mL; in the assay on N. gonorrhoeae WHO Q, above 64 µg/mL; with N. gonorrhoeae CDC-0197, above 64 µg/mL; with N. gonorrhoeae WHO M, 16 to 32 µg/mL (≈ 20.1 to 40.2 µM); with N. gonorrhoeae WHO Z, above 64 µg/mL; in the assay on N. gonorrhoeae WHO K, above 64 µg/mL. The figures for the MIC with N. gonorrhoeae WHO X and with N. gonorrhoeae MS11 were above 64 µg/mL and 16 to 32 µg/mL (≈ 20.1 to 40.2 µM), respectively. Moreover, in assay [1], the IC50 was above 250 µM.
As for `O=C(NCCS(=O)(=O)N1CCN(C(=O)NC(C(=O)N[C@H]2Cc3ccc(F)c(C(=O)O)c3OB2O)c2cc(F)c(O)c(O)c2Cl)C1=O)c1ccncc1` (stereo partly drawn) [Example 288, (3R)-3-(2-(2-chloro-5-fluoro-3,4-dihydroxyphenyl)-2-(3-((2-(isonicotinamido)ethyl)sulfonyl)-2-oxoimidazolidine-1-carboxamido)acetamido)-7-fluoro-2-hydroxy-3,4-dihydro-2H-benzo[e][1,2]oxaborinine-8-carboxylic acid], the MIC was above 64 µg/mL in the assay with N. gonorrhoeae WHO L; 16 to 32 µg/mL (≈ 20.9 to 41.7 µM) in the assay with N. gonorrhoeae WHO Q; 16 to 32 µg/mL (≈ 20.9 to 41.7 µM) with N. gonorrhoeae CDC-0197; 4 to 8 µg/mL (≈ 5.22 to 10.4 µM) in the assay on N. gonorrhoeae WHO M; 4 to 8 µg/mL (≈ 5.22 to 10.4 µM) with N. gonorrhoeae WHO Z; 16 to 32 µg/mL (≈ 20.9 to 41.7 µM) with N. gonorrhoeae WHO K. Further, the MIC was above 64 µg/mL in the assay with N. gonorrhoeae WHO X and 4 to 8 µg/mL (≈ 5.22 to 10.4 µM) in the assay with N. gonorrhoeae MS11. In addition, the IC50 in assay [1] is above 250 µM.
On to `O=C(NCCCN1CCN(C(=O)NC(C(=O)N[C@H]2Cc3ccc(F)c(C(=O)O)c3OB2O)c2cc(F)c(O)c(O)c2Cl)C(=O)C1=O)c1ccc(O)cc1O` (stereo partly drawn) [Example 307, (3R)-3-(2-(2-chloro-5-fluoro-3,4-dihydroxyphenyl)-2-(4-(3-(2,4-dihydroxybenzamido)propyl)-2,3-dioxopiperazine-1-carboxamido)acetamido)-7-fluoro-2-hydroxy-3,4-dihydro-2H-benzo[e][1,2]oxaborinine-8-carboxylic acid], for which the MIC was above 64 µg/mL with N. gonorrhoeae WHO L; above 64 µg/mL in the assay with N. gonorrhoeae WHO Q; above 64 µg/mL in the assay on N. gonorrhoeae CDC-0197; 16 to 32 µg/mL (≈ 20.6 to 41.2 µM) with N. gonorrhoeae WHO M; above 64 µg/mL in the assay on N. gonorrhoeae WHO Z; above 64 µg/mL in the assay on N. gonorrhoeae WHO K. For the same compound, the MIC in the assay on N. gonorrhoeae WHO X was above 64 µg/mL; in the assay on N. gonorrhoeae MS11, 16 to 32 µg/mL (≈ 20.6 to 41.2 µM). Besides, the IC50 in assay [1] was above 250 µM.
On to `Cc1cnccc1C(=O)NCCCN1CCN(C(=O)NC(C(=O)N[C@H]2Cc3ccc(F)c(C(=O)O)c3OB2O)c2cc(F)c(O)c(O)c2Cl)C(=O)C1=O` (stereo partly drawn) [Example 297, (3R)-3-(2-(2-chloro-5-fluoro-3,4-dihydroxyphenyl)-2-(4-(3-(3-methylisonicotinamido)propyl)-2,3-dioxopiperazine-1-carboxamido)acetamido)-7-fluoro-2-hydroxy-3,4-dihydro-2H-benzo[e][1,2]oxaborinine-8-carboxylic acid], for which the MIC is above 64 µg/mL in the assay on N. gonorrhoeae WHO L; above 64 µg/mL in the assay on N. gonorrhoeae WHO Q; above 64 µg/mL with N. gonorrhoeae CDC-0197; 16 to 32 µg/mL (≈ 21.1 to 42.2 µM) in the assay with N. gonorrhoeae WHO M; above 64 µg/mL with N. gonorrhoeae WHO Z; above 64 µg/mL with N. gonorrhoeae WHO K. For the same compound, the MIC with N. gonorrhoeae WHO X is above 64 µg/mL; in the assay with N. gonorrhoeae MS11, 16 to 32 µg/mL (≈ 21.1 to 42.2 µM). In [1], the IC50 is above 250 µM.
`O=C(NCCN1CCN(C(=O)N[C@@H](C(=O)N[C@H]2Cc3ccc(F)c(C(=O)O)c3OB2O)c2cc(F)c(O)c(O)c2Cl)C1=O)Nc1ccc(O)cc1` [Example 279, (R)-3-((R)-2-(2-chloro-5-fluoro-3,4-dihydroxyphenyl)-2-(3-(2-(3-(4-hydroxyphenyl)ureido)ethyl)-2-oxoimidazolidine-1-carboxamido)acetamido)-7-fluoro-2-hydroxy-3,4-dihydro-2H-benzo[e][1,2]oxaborinine-8-carboxylic acid]: the MIC in the assay on N. gonorrhoeae WHO L fell in the range of 16 to 32 µg/mL (≈ 21.8 to 43.7 µM); in the assay with N. gonorrhoeae WHO Q it was 16 to 32 µg/mL (≈ 21.8 to 43.7 µM); with N. gonorrhoeae CDC-0197 it was 4 to 8 µg/mL (≈ 5.46 to 10.9 µM); in the assay with N. gonorrhoeae WHO M it was 1 to 2 µg/mL (≈ 1.36 to 2.73 µM); in the assay on N. gonorrhoeae WHO Z it was 4 to 8 µg/mL (≈ 5.46 to 10.9 µM); in the assay on N. gonorrhoeae WHO K it was 16 to 32 µg/mL (≈ 21.8 to 43.7 µM). Also, the values for the MIC in the assay with N. gonorrhoeae WHO X and in the assay on N. gonorrhoeae MS11 were above 64 µg/mL and 4 to 8 µg/mL (≈ 5.46 to 10.9 µM), respectively. The IC50 in assay [1] is above 250 µM.
For the compound `O=C(NCCCN1CCN(C(=O)N[C@H](C(=O)N[C@H]2Cc3ccc(F)c(C(=O)O)c3OB2O)c2cc(F)c(O)c(O)c2Cl)C1=O)Nc1ccc(O)cc1` [Example 283, (R)-3-((S)-2-(2-chloro-5-fluoro-3,4-dihydroxyphenyl)-2-(3-(3-(3-(4-hydroxyphenyl)ureido)propyl)-2-oxoimidazolidine-1-carboxamido)acetamido)-7-fluoro-2-hydroxy-3,4-dihydro-2H-benzo[e][1,2]oxaborinine-8-carboxylic acid], the MIC in the assay with N. gonorrhoeae WHO L, in the assay with N. gonorrhoeae WHO Q, in the assay with N. gonorrhoeae CDC-0197, in the assay on N. gonorrhoeae WHO M, in the assay on N. gonorrhoeae WHO Z and in the assay on N. gonorrhoeae WHO K was above 64 µg/mL throughout. The MIC in the assay with N. gonorrhoeae WHO X and in the assay on N. gonorrhoeae MS11 was above 64 µg/mL each time. For the same compound, the IC50 in assay [1] is above 250 µM.
In the case of `O=C(NCCCN1CCN(C(=O)N[C@@H](C(=O)N[C@H]2Cc3ccc(F)c(C(=O)O)c3OB2O)c2cc(F)c(O)c(O)c2Cl)C(=O)C1=O)c1cccc(O)c1Cl` [Example 303, (R)-3-((R)-2-(4-(3-(2-chloro-3-hydroxybenzamido)propyl)-2,3-dioxopiperazine-1-carboxamido)-2-(2-chloro-5-fluoro-3,4-dihydroxyphenyl)acetamido)-7-fluoro-2-hydroxy-3,4-dihydro-2H-benzo[e][1,2]oxaborinine-8-carboxylic acid], the MIC in the assay with N. gonorrhoeae WHO L was above 64 µg/mL; in the assay on N. gonorrhoeae WHO Q, above 64 µg/mL; with N. gonorrhoeae CDC-0197 it was 16 to 32 µg/mL (≈ 20.1 to 40.3 µM); in the assay with N. gonorrhoeae WHO M it was 4 to 8 µg/mL (≈ 5.04 to 10.1 µM); in the assay with N. gonorrhoeae WHO Z it was 16 to 32 µg/mL (≈ 20.1 to 40.3 µM); in the assay with N. gonorrhoeae WHO K, above 64 µg/mL. The MIC in the assay on N. gonorrhoeae WHO X was above 64 µg/mL; in the assay on N. gonorrhoeae MS11 it was 4 to 8 µg/mL (≈ 5.04 to 10.1 µM). The IC50 in assay [1] is above 250 µM.
`O=C(O)c1c(F)ccc2c1OB(O)[C@@H](NC(=O)C(NC(=O)N1CCN(Cc3ccc(O)c(O)c3Cl)C(=O)C1=O)c1cc(F)c(O)c(O)c1Cl)C2` (stereo partly drawn) [Example 292, (3R)-3-(2-(4-(2-chloro-3,4-dihydroxybenzyl)-2,3-dioxopiperazine-1-carboxamido)-2-(2-chloro-5-fluoro-3,4-dihydroxyphenyl)acetamido)-7-fluoro-2-hydroxy-3,4-dihydro-2H-benzo[e][1,2]oxaborinine-8-carboxylic acid]: the MIC in the assay on N. gonorrhoeae WHO L, in the assay with N. gonorrhoeae WHO Q, in the assay with N. gonorrhoeae CDC-0197, in the assay on N. gonorrhoeae WHO M, with N. gonorrhoeae WHO Z and in the assay with N. gonorrhoeae WHO K was above 64 µg/mL in each case. The MIC in the assay on N. gonorrhoeae WHO X and in the assay with N. gonorrhoeae MS11 was above 64 µg/mL in each case. For the same compound, the IC50 in assay [1] is above 250 µM.
